Source: the supplement of paper PMC10307832

Assays:
Experiment in all cases: relative viability (nuclei count vs DMSO), 5 days (fraction); higher = more cells survive
[1] = compound: CS(=O)(=O)N1CCN(Cc2cc3nc(-c4cccc5[nH]ncc45)nc(N4CCOCC4)c3s2)CC1 [Pictilisib] + N=C(N)NC(=N)NCCc1ccccc1 [Phenformin] (partner 250 µM)
Outline: (§1)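 Cells from lung cancer lines were seeded into 1536-well plates and, one day later, dosed by pin tool. Treatments were either a single drug or a fixed dose of an anchor drug with five library-drug doses (not always all listed) in √10 steps. After 5 days, nuclei were stained in a one-step fixation (final 0.05% Triton X-100, 1% formaldehyde, 1 ug/ml Hoechst) and counted on 4× images, and relative viability is the treated-to-vehicle nuclei ratio, as the median of duplicate plates.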

[2] = compound: CS(=O)(=O)N1CCN(Cc2cc3nc(-c4cccc5[nH]ncc45)nc(N4CCOCC4)c3s2)CC1 [Pictilisib] + Nc1nc2[nH]cc(CCc3ccc(C(=O)N[C@@H](CCC(=O)O)C(=O)O)cc3)c2c(=O)[nH]1 [Pemetrexed] (partner 0.2 µM)
Outline: as §1

[3] = compound: CS(=O)(=O)N1CCN(Cc2cc3nc(-c4cccc5[nH]ncc45)nc(N4CCOCC4)c3s2)CC1 [Pictilisib] + CC(=O)c1c(C)c2cnc(Nc3ccc(N4CCNCC4)cn3)nc2n(C2CCCC2)c1=O [Palbociclib] (partner 0.5 µM)
Outline: as §1

[4] = compound: NC1(c2ccc(-c3nc4ccn5c(=O)[nH]nc5c4cc3-c3ccccc3)cc2)CCC1 [MK-2206] + C[C@@H](Oc1cc(-c2cnn(C3CCNCC3)c2)cnc1N)c1c(Cl)ccc(F)c1Cl [Crizotinib] (partner 1 µM)
Outline: as §1

[5] = compound: CS(=O)(=O)N1CCN(Cc2cc3nc(-c4cccc5[nH]ncc45)nc(N4CCOCC4)c3s2)CC1 [Pictilisib] + O=C(c1cc(Cc2n[nH]c(=O)c3ccccc23)ccc1F)N1CCN(C(=O)C2CC2)CC1 [Olaparib] (partner 8 µM)
Outline: as §1

Row | Cell Line | relative viability ([1]; first compound 0.02 µM) | relative viability ([1]; first compound 0.06325 µM) | relative viability ([1]; first compound 0.6325 µM) | relative viability ([1]; first compound 2 µM) | relative viability ([2]; first compound 0.02 µM) | relative viability ([2]; first compound 0.06325 µM) | relative viability ([2]; first compound 0.6325 µM) | relative viability ([2]; first compound 2 µM) | relative viability ([3]; first compound 0.02 µM) | relative viability ([3]; first compound 0.06325 µM) | relative viability ([3]; first compound 0.6325 µM) | relative viability ([3]; first compound 2 µM) | relative viability ([4]; first compound 0.01 µM) | relative viability ([4]; first compound 0.03162 µM) | relative viability ([4]; first compound 0.3162 µM) | relative viability ([4]; first compound 1 µM) | relative viability ([5]; first compound 0.02 µM) | relative viability ([5]; first compound 0.06325 µM) | relative viability ([5]; first compound 0.6325 µM) | relative viability ([5]; first compound 2 µM)
1 | NCI-H1651 | 0.331 | 0.36 | 0.268 | 0.261 | 0.516 | 0.591 | 0.519 | 0.38 | 0.518 | 0.499 | 0.496 | 0.378 | 0.878 | 0.875 | 0.892 | 0.884 | 0.18 | 0.187 | 0.21 | 0.191
2 | H3255 | 0.399 | 0.344 | 0.334 | 0.318 | 0.611 | 0.613 | 0.525 | 0.399 | 0.314 | 0.375 | 0.297 | 0.292 | 0.833 | 0.913 | 0.729 | 0.616 | 0.585 | 0.599 | 0.472 | 0.412
3 | Calu-6 | – | – | – | – | – | – | – | – | – | – | – | – | 0.717 | 0.856 | 0.786 | 0.729 | 0.656 | 0.554 | 0.589 | 0.519
4 | SW 900 | 0.617 | 0.554 | 0.417 | 0.191 | 0.499 | 0.478 | 0.477 | 0.27 | 0.543 | 0.58 | 0.358 | 0.252 | – | – | – | – | 0.793 | 0.818 | 0.713 | 0.471
5 | NCI-H650 | 0.468 | 0.457 | 0.357 | 0.394 | 1.02 | 0.887 | 0.701 | 0.525 | 0.323 | 0.308 | 0.271 | 0.265 | 0.725 | 0.72 | 0.563 | 0.805 | 0.372 | 0.37 | 0.44 | 0.348
6 | NCI-H460 | 0.549 | 0.534 | 0.266 | 0.0575 | 0.0594 | 0.0727 | 0.0616 | 0.0599 | 0.185 | 0.161 | 0.111 | 0.0339 | 0.86 | 0.905 | 0.855 | 0.893 | 0.425 | 0.436 | 0.395 | 0.173
7 | NCI-H2228 | 0.335 | 0.38 | 0.18 | 0.141 | 0.316 | 0.252 | 0.334 | 0.119 | 0.64 | 1.04 | 0.492 | 0.282 | 0.445 | 0.348 | 0.343 | 0.339 | 0.715 | 0.734 | 0.45 | 0.209
8 | NCI-H2085 | 0.725 | 0.688 | 0.387 | 0.291 | 0.826 | 0.911 | 0.401 | 0.303 | 0.465 | 0.462 | 0.362 | 0.267 | 0.887 | 0.888 | 0.876 | 0.724 | 0.764 | 0.823 | 0.586 | 0.353
9 | HCC-366 | 0.631 | 0.702 | 0.269 | 0.129 | 0.172 | 0.195 | 0.248 | 0.122 | 0.434 | 0.305 | 0.133 | 0.0473 | 0.48 | 0.532 | 0.452 | 0.442 | 0.401 | 0.357 | 0.199 | 0.077
